Data: patent publication US11680047B2, “Enhanced erythropoiesis and iron metabolism” (FibroGen, Inc., priority 2003, dated 2023)
Marks after values point to notes of the source that are not given here.

Assays:
Ceruloplasmin (CP) = test: Microarray gene expression in Hep3B cells: ceruloplasmin; assay type: cell-based, human; conditions: 2 μM
Method: (§1) Hep3B cells (ATCC No. HB-8064) were grown in DMEM containing 8% fetal bovine serum. Hep3B cells were seeded into 6-well culture dishes at ˜500,000 cells per well. After 8 hours, the media was changed to DMEM containing 0.5% fetal bovine serum and the cells were incubated for an additional 16 hours. Compound B or compound D was added to the cells (2 μM final concentration) and the cells were incubated for various times. Control cells (no compound treatment, addition of DMSO alone) were harvested at 0, 6 and 48 hours. Harvested cells were assessed for cell viability (GUAVA), or added to RNA extraction buffer (RNeasy, Qiagen) and stored at −20° C. for subsequent RNA purification. Replicate microarrays were generated using RNA isolated from replicate experiments conducted on different days. Total RNA was isolated from cells using the RNeasy kit (Qiagen).
(§2) RNA was precipitated in 0.3 M sodium acetate (pH 5.2), 50 ng/ml glycogen, and 2.5 volumes of ethanol for one hour at −20° C. Samples were centrifuged and pellets were washed with cold 80% ethanol, dried, and resuspend in water. Double stranded cDNA was synthesized using a T7-(dT)24 first strand primer (Affymetrix, Inc., Santa Clara Calif.) and the SUPERSCRIPT CHOICE system (Invitrogen) according to the manufacturer's instructions. The final cDNA was extracted with an equal volume of 25:24:1 phenol:chloroform:isoamyl alcohol using a PHASE LOCK GEL insert (Brinkman, Inc., Westbury N.Y.). The aqueous phase was collected and cDNA was precipitated using 0.5 volumes of 7.5 M ammonium acetate and 2.5 volumes of ethanol. Alternatively, cDNA was purified using the GENECHIP sample cleanup module (Affymetrix) according to the manufacturer's instructions.
(§3) Biotin-labeled cRNA was synthesized from the cDNA in an in vitro […] (IVT) reaction using a BIOARRAY HighYield RNA transcript labeling kit (Enzo Diagnostics, Inc., Farmingdale N.Y.) according to the manufacturer's instructions. Final labeled product was purified and fragmented using the GENECHIP sample cleanup module (Affymetrix) according to the manufacturer's instructions.
(§4) Hybridization cocktail was prepared by bringing […] probe to […] in 1× hybridization buffer (100 mM MES, 1 M [Na^+], 20 mM EDTA, 0.01% Tween 20), 100 µg/ml herring sperm DNA, 500 µg/ml acetylated BSA, 0.03 nM contol oligo B2 (Affymetrix), and 1×GENECHIP eukaryotic hybridization control (Affymetrix). The cocktail was sequentially incubated at 99° C. for 5 minutes and 45° C. for 5 minutes, and then centrifuged for 5 minutes. The Human Genome U133A array (Affymetrix) was brought to room temperature and then prehybridized with 1× hybridization buffer at 45° C. for 10 minutes with rotation. The buffer was then replaced with […] hybridization cocktail and the array was hybridized for 16 hours at 45° C. at 60 rpm with counter balance. Following hybridization, arrays were washed once with 6×SSPE, 0.1% Tween 20, and then washed and stained using R-phycoerythrin-conjugated streptavidin (Molecular Probes, Eugene Oreg.), goat anti-streptavidin antibody (Vector Laboratories, Burlingame Calif.), and a GENECHIP Fluidics Station 400 instrument (Affymetrix) according to the manufacturer's micro_1v1 protocol (Affymetrix). Arrays were analyzed using a GENEARRAY scanner (Affymetrix) and Microarray Suite software (Affymetrix).
(§5) The Human Genome U133A array (Affymetrix) represents all sequences in the Human Unigene database build 133 (National Center for Biotechnology Information, Bethesda Md.), including approximately 14,500 well-characterized human genes.
(§6) RNA quality was monitored by capillary electrophoresis (Agilent Bioanalyzer). Hybridization cocktails were prepared as described (Affymetrix), and hybridized to Affymetrix human U133A arrays containing 22,283 probe sets. Array performance was analyzed with Affymetrix MicroArray Suite (MAS) software and individual probe sets were assigned “present”, “marginal, and “absent” calls according to software defaults. […]

[1] = system: Transferrin Receptor (TFR2); test: Microarray gene expression in Hep3B cells: transferrin receptor 2; assay type: cell-based, human; conditions: 2 μM
Method: as §1, §2, §3, §4, §5, §6

[2] = Total serum iron levels in rats treated twice weekly for 93 days; assay type: in vivo, rat
Method: Compounds were generally administered orally by gavage or IV administration. Animals treated by oral gavage received a 4-10 ml/kg volume of either 0.5% carboxymethyl cellulose (CMC; Sigma-Aldrich, St. Louis Mo.) with or without 0.1% Polysorbate 80 (0 mg/kg/day) or varying doses of a compound of the present invention (e.g., a HIF prolyl hydroxylase inhibitor) in 0.5% CMC, with or without 0.1% Polysorbate 80, using various dosing regimens. Blood samples were collected at appropriate intervals during treatment from, e.g., tail vein (rats), or abdominal vein or cardiocentesis (mice or rats). Generally, animals were anesthetized with isoflurane and blood samples were collected into MICROTAINER serum separator tubes (Becton-Dickinson, Franklin Lakes N.J.). For measurement of serum components, the tubes were incubated at room temperature for 30 minutes, and then centrifuged at 8,000 rpm at 4° C. for 10 minutes. The serum fraction was then processed and analyzed for the presence of specific components, e.g., serum iron (assay performed by Quality Clinical Labs, Mountain View, Calif.). For determination of hematocrit, blood samples were collected into MICROTAINER EDTA-2K tubes (Becton-Dickinson); EDTA-blood was then drawn into 75 mm×1.1-1.2 mm I.D. capillary tubes (Chase Scientific Glass, Inc., Rockwood Tenn.) to approximately % length, one end of the tube was sealed with CRITOSEAL sealant (Sherwood Medical Company), and the tubes were centrifuged in a J-503M MICROHEMATOCRIT centrifuge (Jorgensen Laboratories, Inc., Loveland Colo.) at 12,000 rpm for 5 minutes. Hematocrit was read against a reader card. When indicated, complete blood count (CBC) analysis, including blood hemoglobin level, reticulocyte number, and hematocrit, was performed by Quality Clinical Labs (Mountain View, Calif.).
Male and female rats were treated twice weekly (Monday and Thursday) with various concentrations (0, 20, 60, or 150 mg/kg) of compound A for 93 days. Total serum iron levels were determined.

With O=C(O)CNC(=O)c1ncc2cc(Oc3ccccc3)ccc2c1O [Compound B, [(4-Hydroxy-7-phenoxy-isoquinoline-3-carbonyl)-amino]-acetic acid] the “Ceruloplasmin (CP) fold-increase in mRNA levels above control, first data point” value (Ceruloplasmin (CP); 1 hr) was 1.142 fold, the “Ceruloplasmin (CP) fold-increase in mRNA levels above control, second data point” value (Ceruloplasmin (CP); 1 hr) was 0.946 fold and the “Ceruloplasmin (CP) fold-increase in mRNA levels above control, first data point” value (Ceruloplasmin (CP); 3 hr) was 1.123 fold. For the same compound, the “Ceruloplasmin (CP) fold-increase in mRNA levels above control, second data point” value (Ceruloplasmin (CP); 3 hr) was 0.955 fold, the “Ceruloplasmin (CP) fold-increase in mRNA levels above control, first data point” value (Ceruloplasmin (CP); 6 hr) was 1.555 fold and the “Ceruloplasmin (CP) fold-increase in mRNA levels above control, second data point” value (Ceruloplasmin (CP); 6 hr) was 1.103 fold. For the same compound, the “Ceruloplasmin (CP) fold-increase in mRNA levels above control, first data point” value (Ceruloplasmin (CP); 12 hr) was 2.366 fold, the “Ceruloplasmin (CP) fold-increase in mRNA levels above control, second data point” value (Ceruloplasmin (CP); 12 hr) was 2.507 fold and the “Ceruloplasmin (CP) fold-increase in mRNA levels above control, first data point” value (Ceruloplasmin (CP); 24 hr) was 5.136 fold. The “Ceruloplasmin (CP) fold-increase in mRNA levels above control, second data point” value (Ceruloplasmin (CP); 24 hr) was 4.909 fold, the “Ceruloplasmin (CP) fold-increase in mRNA levels above control, first data point” value (Ceruloplasmin (CP); 48 hr) was 5.82 fold and the “Ceruloplasmin (CP) fold-increase in mRNA levels above control, second data point” value (Ceruloplasmin (CP); 48 hr) was 4.678 fold. For the same compound, the “Transferrin Receptor (TFR2) fold-increase in mRNA levels above control” value ([1]; 1 hr) was 0.575 fold, the “Transferrin Receptor (TFR2) fold-increase in mRNA levels above control” value ([1]; 3 hr) was 0.558 fold and the “Transferrin Receptor (TFR2) fold-increase in mRNA levels above control” value ([1]; 6 hr) was 0.822 fold. The “Transferrin Receptor (TFR2) fold-increase in mRNA levels above control” value ([1]; 12 hr) was 1.253 fold, the “Transferrin Receptor (TFR2) fold-increase in mRNA levels above control” value ([1]; 24 hr) was 2.522 fold and the “Transferrin Receptor (TFR2) fold-increase in mRNA levels above control” value ([1]; 48 hr) was 4.169 fold.

With O=C(O)CNC(=O)c1nc(Cl)c2ccccc2c1O [Compound A, [(1-Chloro-4-hydroxy-isoquinoline-3-carbonyl)-amino]-acetic acid] the “Serum Iron Female Rats (Mean +/− SD)” value ([2]; 20 mg/kg twice weekly) was 505 +/− 41 * µg/dL, the “Serum Iron Female Rats (Mean +/− SD)” value ([2]; 60 mg/kg twice weekly) was 445 +/− 46 * µg/dL and the “Serum Iron Female Rats (Mean +/− SD)” value ([2]; 150 mg/kg twice weekly) was 399 ± 117 µg/dL. The “Serum Iron Male Rats (Mean +/− SD)” value ([2]; 20 mg/kg twice weekly) was 198 ± 64 µg/dL, the “Serum Iron Male Rats (Mean +/− SD)” value ([2]; 60 mg/kg twice weekly) was 357 +/− 111 * µg/dL and the “Serum Iron Male Rats (Mean +/− SD)” value ([2]; 150 mg/kg twice weekly) was 307 +/− 142 * µg/dL.
